Test results from article PMC11899342, “Novel Triazeneindole Antibiotics: Synthesis and Hit-to-Lead Optimization” (International Journal of Molecular Sciences, 2025).

Tested on: MRSA clinical isolates
Test: Antibiotic susceptibility profile of MRSA clinical isolates (EUCAST breakpoints)
Format: cell-based, Staphylococcus aureus
Description: Clinical MRSA isolates with multidrug resistance were obtained from the collection of the Research Institute of Antimicrobial Chemotherapy, Smolensk State Medical Academy.

## Cc1cc(NS(=O)(=O)c2ccc(N)cc2)no1 [SUL, sulfamethoxazole]
MRSA strain 1
  Drug sensibility profile: R
MRSA strain 2
  Drug sensibility profile: S
MRSA strain 3
  Drug sensibility profile: S
MRSA strain 4
  Drug sensibility profile: S
MRSA strain 5
  Drug sensibility profile: S
MRSA strain 6
  Drug sensibility profile: S
MRSA strain 7
  Drug sensibility profile: S
MRSA strain 8
  Drug sensibility profile: S
MRSA strain 9
  Drug sensibility profile: S
MRSA strain 10
  Drug sensibility profile: S
MRSA strain 12
  Drug sensibility profile: S
MRSA strain 13
  Drug sensibility profile: S
MRSA strain 14
  Drug sensibility profile: S
MRSA strain 15
  Drug sensibility profile: S
MRSA strain 16
  Drug sensibility profile: S
MRSA strain 17
  Drug sensibility profile: I
MRSA strain 18
  Drug sensibility profile: S
MRSA strain 21
  Drug sensibility profile: S
MRSA strain 23
  Drug sensibility profile: S
MRSA strain 24
  Drug sensibility profile: S
MRSA strain 25
  Drug sensibility profile: S
MRSA strain 26
  Drug sensibility profile: S S S S S S S
MRSA strain 27
  Drug sensibility profile: S
MRSA strain 28
  Drug sensibility profile: S
MRSA strain 29
  Drug sensibility profile: S
MRSA strain 30
  Drug sensibility profile: S
MRSA strain 31
  Drug sensibility profile: S
MRSA strain 34
  Drug sensibility profile: S
MRSA strain 35
  Drug sensibility profile: S
MRSA strain 36
  Drug sensibility profile: S S S S S S S
MRSA strain 40
  Drug sensibility profile: S
MRSA strain 41
  Drug sensibility profile: S
MRSA strain 42
  Drug sensibility profile: S
MRSA strain 43
  Drug sensibility profile: S
MRSA strain 44
  Drug sensibility profile: S
MRSA strain 45
  Drug sensibility profile: S
MRSA strain 46
  Drug sensibility profile: S
MRSA strain 48
  Drug sensibility profile: S
MRSA strain 49
  Drug sensibility profile: S
MRSA strain 50
  Drug sensibility profile: S
MRSA strain 51
  Drug sensibility profile: S

## CN(C)[C@@H]1C(O)=C(C(N)=O)C(=O)[C@@]2(O)C(O)=C3C(=O)c4c(O)cccc4[C@@](C)(O)[C@H]3C[C@@H]12 [TET, tetracycline]
MRSA strain 1
  Drug sensibility profile: R
MRSA strain 2
  Drug sensibility profile: R
MRSA strain 3
  Drug sensibility profile: S
MRSA strain 4
  Drug sensibility profile: S
MRSA strain 5
  Drug sensibility profile: S
MRSA strain 6
  Drug sensibility profile: S
MRSA strain 7
  Drug sensibility profile: R
MRSA strain 8
  Drug sensibility profile: R
MRSA strain 9
  Drug sensibility profile: R
MRSA strain 10
  Drug sensibility profile: S
MRSA strain 12
  Drug sensibility profile: R
MRSA strain 13
  Drug sensibility profile: R
MRSA strain 14
  Drug sensibility profile: S
MRSA strain 15
  Drug sensibility profile: R
MRSA strain 16
  Drug sensibility profile: S
MRSA strain 17
  Drug sensibility profile: S
MRSA strain 18
  Drug sensibility profile: S
MRSA strain 21
  Drug sensibility profile: R
MRSA strain 23
  Drug sensibility profile: S
MRSA strain 24
  Drug sensibility profile: S
MRSA strain 25
  Drug sensibility profile: S
MRSA strain 26
  Drug sensibility profile: S S S S S S S
MRSA strain 27
  Drug sensibility profile: R
MRSA strain 28
  Drug sensibility profile: R
MRSA strain 29
  Drug sensibility profile: S
MRSA strain 30
  Drug sensibility profile: S
MRSA strain 31
  Drug sensibility profile: S
MRSA strain 34
  Drug sensibility profile: S
MRSA strain 35
  Drug sensibility profile: S
MRSA strain 36
  Drug sensibility profile: S S S S S S S
MRSA strain 40
  Drug sensibility profile: R
MRSA strain 41
  Drug sensibility profile: R
MRSA strain 42
  Drug sensibility profile: S
MRSA strain 43
  Drug sensibility profile: S
MRSA strain 44
  Drug sensibility profile: S
MRSA strain 45
  Drug sensibility profile: I
MRSA strain 46
  Drug sensibility profile: S
MRSA strain 48
  Drug sensibility profile: R
MRSA strain 49
  Drug sensibility profile: R
MRSA strain 50
  Drug sensibility profile: R
MRSA strain 51
  Drug sensibility profile: S

## Cn1nnc(-c2ccc(-c3ccc(N4C[C@H](CO)OC4=O)cc3F)cn2)n1 [Tedizolid]
MRSA strain 6
  Drug sensibility profile: S
MRSA strain 7
  Drug sensibility profile: S
MRSA strain 8
  Drug sensibility profile: S
MRSA strain 9
  Drug sensibility profile: S
MRSA strain 10
  Drug sensibility profile: S
MRSA strain 12
  Drug sensibility profile: S
MRSA strain 13
  Drug sensibility profile: S
MRSA strain 14
  Drug sensibility profile: S
MRSA strain 15
  Drug sensibility profile: S
MRSA strain 16
  Drug sensibility profile: S
MRSA strain 17
  Drug sensibility profile: S
MRSA strain 18
  Drug sensibility profile: S
MRSA strain 21
  Drug sensibility profile: S
MRSA strain 23
  Drug sensibility profile: S
MRSA strain 24
  Drug sensibility profile: S
MRSA strain 25
  Drug sensibility profile: S
MRSA strain 26
  Drug sensibility profile: S
MRSA strain 27
  Drug sensibility profile: S
MRSA strain 28
  Drug sensibility profile: S
MRSA strain 29
  Drug sensibility profile: S
MRSA strain 36
  Drug sensibility profile: S
MRSA strain 41
  Drug sensibility profile: S
MRSA strain 42
  Drug sensibility profile: S
MRSA strain 44
  Drug sensibility profile: S
MRSA strain 45
  Drug sensibility profile: S
MRSA strain 51
  Drug sensibility profile: S

## CCCCCCCCCCNCCN[C@@]1(C)C[C@H](O[C@H]2[C@H](Oc3c4cc5cc3Oc3ccc(cc3Cl)[C@@H](O)[C@@H](NC(=O)[C@@H](CC(C)C)NC)C(=O)N[C@@H](CC(N)=O)C(=O)N[C@H]5C(=O)N[C@H]3C(=O)N[C@H](C(=O)N[C@H](C(=O)O)c5cc(O)c(CNCP(=O)(O)O)c(O)c5-c5cc3ccc5O)[C@H](O)c3ccc(c(Cl)c3)O4)O[C@H](CO)[C@@H](O)[C@@H]2O)O[C@@H](C)[C@H]1O [Telavancin]
MRSA strain 25
  Drug sensibility profile: S
MRSA strain 26
  Drug sensibility profile: S
MRSA strain 27
  Drug sensibility profile: S
MRSA strain 28
  Drug sensibility profile: S
MRSA strain 29
  Drug sensibility profile: S
MRSA strain 36
  Drug sensibility profile: S
MRSA strain 41
  Drug sensibility profile: S
MRSA strain 42
  Drug sensibility profile: S
MRSA strain 44
  Drug sensibility profile: S
MRSA strain 45
  Drug sensibility profile: S
MRSA strain 51
  Drug sensibility profile: S

## CN(C)c1cc(NC(=O)CNC(C)(C)C)c(O)c2c1C[C@H]1C[C@H]3[C@H](N(C)C)C(O)=C(C(N)=O)C(=O)[C@@]3(O)C(O)=C1C2=O [Tigecycline]
MRSA strain 1
  Drug sensibility profile: S
MRSA strain 2
  Drug sensibility profile: R
MRSA strain 3
  Drug sensibility profile: S
MRSA strain 4
  Drug sensibility profile: S
MRSA strain 5
  Drug sensibility profile: S
MRSA strain 6
  Drug sensibility profile: S
MRSA strain 7
  Drug sensibility profile: S
MRSA strain 8
  Drug sensibility profile: R
MRSA strain 9
  Drug sensibility profile: R
MRSA strain 10
  Drug sensibility profile: S
MRSA strain 12
  Drug sensibility profile: R
MRSA strain 13
  Drug sensibility profile: R
MRSA strain 14
  Drug sensibility profile: S
MRSA strain 15
  Drug sensibility profile: S
MRSA strain 16
  Drug sensibility profile: S
MRSA strain 17
  Drug sensibility profile: R
MRSA strain 18
  Drug sensibility profile: S
MRSA strain 21
  Drug sensibility profile: S
MRSA strain 23
  Drug sensibility profile: S
MRSA strain 24
  Drug sensibility profile: S
MRSA strain 25
  Drug sensibility profile: S
MRSA strain 26
  Drug sensibility profile: S
MRSA strain 27
  Drug sensibility profile: S
MRSA strain 28
  Drug sensibility profile: S
MRSA strain 29
  Drug sensibility profile: S
MRSA strain 30
  Drug sensibility profile: S
MRSA strain 31
  Drug sensibility profile: S
MRSA strain 34
  Drug sensibility profile: S
MRSA strain 35
  Drug sensibility profile: S
MRSA strain 36
  Drug sensibility profile: S
MRSA strain 40
  Drug sensibility profile: S
MRSA strain 41
  Drug sensibility profile: S
MRSA strain 42
  Drug sensibility profile: S
MRSA strain 43
  Drug sensibility profile: S
MRSA strain 44
  Drug sensibility profile: S
MRSA strain 45
  Drug sensibility profile: S
MRSA strain 46
  Drug sensibility profile: S
MRSA strain 48
  Drug sensibility profile: S
MRSA strain 49
  Drug sensibility profile: S
MRSA strain 50
  Drug sensibility profile: S
MRSA strain 51
  Drug sensibility profile: S
